Results published in US11413348B2, “Low molecular weight cationic lipids for oligonucleotide delivery” (SIRNA THERAPEUTICS, INC., priority 2010, dated 2022).

Legend:
[1] = biological target: T1, ApoE (Macaca mulatta, UniProt Q28502); assay: In vitro ApoE binding assay (anti-PEG capture, ApoE ELISA, stem-loop RT-PCR); conditions: LNP 4 ug/mL in 90% rhesus serum, 37° C., 20 minutes; estimate of 500 siRNA per LNP
T1 construct: from tissue; host or cells: rhesus serum
Protocol: LNPs are incubated at 37° C. in 90% rhesus serum at a final LNP concentration of 4 ug/mL. Incubation is for 20 minutes with orbital rotation. After incubation, the samples are diluted 1:20 in PBS and 100 uL of each diluted sample is aliquoted to wells of an anti-PEG antibody coated 96-well plate (Life Diagnostics Cat. No. P-0001PL. After incubation at room temperature for 1 hour, the plate is washed 5× with 300 uL PBS. After washing, 50 uL of 0.2% Triton X-100 is added to each well and the plate incubated at 37° C. for 10 minutes, followed by shaking on a plate shaker for 1 minute at 750 rpm. Samples are frozen prior to performing the ApoE ELISA and stem loop PCR analysis of samples.
An ApoE ELISA assay is performed to quantitate ApoE bound to the LNPs after incubation in rhesus serum. Anti-ApoE antibody (Milipore, Cat No. AB947) is diluted 1:1000 in PBS and 100 uL of diluted antibody is added to each well of a polystyrene high binding plate. The plate with antibody is incubated overnight at 4° C., after which the plate is washed 2× with 200 uL of PBS. Next, 200 uL of buffer containing 1% BSA and 0.05% Tween-20 in PBS (Incubation Buffer) is added to each well followed by incubation at room temperature for 1 hour. Plates are washed 5× with PBS containing 0.05% Tween-20. Frozen Triton lysis test samples are thawed and diluted 1:6 with incubation buffer and 100 uL of test sample is aliquoted to wells of the ApoE antibody plate. Incubation is for 1 hour at room temperature followed by a 5× wash with PBS containing 0.05% Tween-20. After washing, 100 uL of biotinylated anti-ApoE antibody (Mabtech, Cat. ANo. E887-biotin), diluted 1:500 in incubation buffer, is added to each well and incubated for 1 hour at room temperature, followed by a 5× wash with 0.05% Tween-20 in PBS. 100 uL per well, of Streptavidin-HPR (Thermo, Cat. No. TS-125-HR), is then added and incubated for 1 hour at room temperature. After washing 5× with 0.05% Tween-20 in PBS, 100 uL of TMB Substrate (Thermo, Cat. No. 34028) is added to each well, followed by incubation at room temperature for 20 minutes in the dark. The calorimetric reaction is slopped with 100 uL of TMB Stop Solution (KPL, Cat. No. 50-85-04) and absorbance at 450 nm is determined. An ApoE standard curve is prepared by diluting rhesus Recombinant ApoE in incubation buffer with 0.03% Triton X-100 with concentrations ranging from 100 ng/mL to 0.78 ng/mL. ApoE standards are evaluated in the ELISA in parallel to the test samples. A rhesus serum only (no LNP) control is utilized to obtain a background subtraction for non-LNP dependent ApoE signal in the ELISA.
To normalize to the ApoE bound to the amount of LNP bound to the anti-PEG antibody plate, the amount of siRNA retained in the anti-PEG antibody well is quantitated by stem-loop PCR and related to the number of siRNAs encapsulated per LNP, to give an approximate measure of total LNP particles bound per well.
The standard curve is prepared using the molecular weight of the siRNA (13693 g/mol for ApoB 17063) to calculate the copy number. The high standard should contain 10^11 copies per 3 μl. A 10-fold serial dilution is performed across a row of an assay plate until the lowest standard contains 10^2 copies per 3 μl. Dilute 0.2% Triton X-100 1:80 in water and pipette 20 uL of the diluted Triton X-100 into 10 wells of a 96 well plate. 30 uL of the serial diluted standard curve and mix are added to each well of the plate. 10 uL of the spiked standard curve is used in the reverse transcription reaction.
Triton lysates from the PEG antibody plate capture are diluted 1 to 2000 in nuclease free water. 10 uL of ‘RT-Primer Mix’ (Applied Biosystem's TaqMan MicroRNA Reverse Transcription Kit Cat. No. 4366596) is added to each well of a 96-well Micro-Amp QPCR plate (ABI Cat #N801-0560).
[…] of each test sample (diluted 1 to 2000) or spiked standard curve (above) are aliquoted into the 96-well plate. […]

[2] = test system: β-catenin mRNA; assay: TRE-MET HCC mouse pharmacodynamic study (β-catenin mRNA by Taqman in liver and tumor); type: in vivo; conditions: intravenous, 72 hours; for knockdown of β-catenin mRNA in both liver and tumor tissues: FIGS. 8, 9, 12, 13
Protocol: The activity LNPs in delivering a β-catenin siRNA (siRNAβ-cat) to hepatocellular carcinoma was evaluated in a mouse hepatocellular carcinoma (HCC) model, named TRE-MET. TRE-MET mice are transgenic mice in an FVB/N genetic background where the human MET transgene is expressed under an hCMV promoter with hepatamerized upstream tet-operators. When TRE-MET mice are crossed with the LAP-tTA line, the double transgenic (TRE-MET/LAP-tTA) mice express MET in a liver-specific manner which can be suppressed by administration of doxycycline. These mice develop HCC at 3 months of age with visually identifiable tumor nodules on the liver surface and the tumors display a diffuse trabecular growth pattern typical for HCC and express the HCC tumor marker alpha-fetoprotein (AFP). In addition, the mutation analysis in the tumor of TRE-MET mice has also identified activating mutations in the beta-catenin gene in approximately 95% of tumors. These features make the TRE-MET HCC mouse model suitable for evaluating LNP-mediated delivery of β-catenin siRNA and the resultant efficacy on tumor growth.
The effect of β-catenin containing LNPs in silencing β-catenin mRNA in both liver and tumor tissues was first evaluated in a pharmacodynamic (PD) study in TRE-MET mice bearing tumors. Different doses of LNPs or a high dose of LNPcontrol siRNA were intravenously administered and 72 hours later, necropsy was performed to collect liver and tumor tissues for the determination of β-catenin mRNA levels by Taqman. […] The KD in tumors ranges from 70% (2 mpk) to about 40% (0.1 or 0.05 mpk).

T1 sequence (Q28502 19-295): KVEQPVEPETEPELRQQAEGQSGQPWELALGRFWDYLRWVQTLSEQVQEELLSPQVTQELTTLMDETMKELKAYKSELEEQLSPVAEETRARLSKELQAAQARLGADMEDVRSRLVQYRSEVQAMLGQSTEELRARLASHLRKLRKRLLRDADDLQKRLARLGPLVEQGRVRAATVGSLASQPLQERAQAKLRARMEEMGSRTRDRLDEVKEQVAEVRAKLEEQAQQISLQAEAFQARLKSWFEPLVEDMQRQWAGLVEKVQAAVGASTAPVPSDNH

## CCCCCCCCCC(CCCCCCCC1CC1CCCCCCCC)N(C)C [Compound 33, N,N-dimethyl-1-[(1S,2R)-2-octylcyclopropyl]hepladecan-8-amine]
[1]
  ApoE Molecules/LNP: 18.1 Molecules/LNP
[2]; 0.05 mpk
  β-catenin mRNA KD in normal liver: 69%
[2]; 0.1 mpk
  β-catenin mRNA KD in normal liver: 88%
[2]; 0.1 or 0.05 mpk
  β-catenin mRNA KD in tumors: about 40%
[2]; 2 mpk
  β-catenin mRNA KD in tumors: 70%
[2]
  knockdown of β-catenin mRNA in both liver and tumor tissues: robust and dose-dependent knockdown

## CCCCC/C=C\C/C=C\CCCCCCCCCC(CCCCCCCCC)CCN(C)C (stereo not drawn) [Compound 32, (13Z,16Z)—N,N-dimethyl-3-nonyldocosa-13,16-dien-1-amine]
[1]
  ApoE Molecules/LNP: 12.8 Molecules/LNP
[2]; 0.05 mpk
  β-catenin mRNA KD in normal liver: 78%
[2]; 0.1 mpk
  β-catenin mRNA KD in normal liver: 76%
[2]; 0.1 or 0.05 mpk
  β-catenin mRNA KD in tumors: 20-30%
[2]; 0.25 mpk
  β-catenin mRNA KD in tumors: 47%
[2]
  knockdown of β-catenin mRNA in both liver and tumor tissues: robust and dose-dependent knockdown
